Test results as given in patent publication US4827004A, “Isoprene derivatives” (Hoffmann-La Roche Inc., priority 1986, dated 1989).
Where two headings read alike, the source gives them in different places.

What was measured:
[1] = system: mucous membrane of the stomach; assay: ethanol test (mucosa-protective activity; ethanol-induced gastric lesions); type: in vivo, male rats; settings: Rattus norvegicus, po, read-out: Ethanol Test ID 50
Protocol: The experimental procedure described hereinafter was used to determine the muscosa-protective property:
The oral administration of absolute ethanol to male rats in a dosage of 1 ml per rat leads within 1 hour to bloody lesions of the mucous membrane of the stomach. Various dosages of the substances to be tested (suspended in 0.125% carboxymethylcellulose) or of the vehicle alone (control) are administered to the rats orally (1 ml per rat) 30 minutes prior to the treatment with ethanol. One hour after the administration of the ethanol the animals are killed, their stomachs are investigated for the presence of lesions and the number and the total dimension of such lesions are determined. The ID50 is that dosage of a test substance which reduces by 50% the number of lesions in comparison to the control group.
(§1) In the following Table there are given for a series of representative compounds of formula I the results of the testing with respect to their mucosa-protective activity ("ethanol test") and to their gastric acid secretion-inhibiting activity. Moreover, this Table contains data concerning the acute toxicity (LD50 in the case of single oral administration to mice).

gastric acid secretion = assay: gastric acid secretion-inhibiting activity (pylorus ligation according to Shay et al.); type: in vivo, male rats; settings: Rattus norvegicus, read-out: Gastric acid secretion-inhibition, ID 50
Protocol: The test procedure described hereinafter was used to determine the gastric acid secretion-inhibiting activity:
The pylorus of male rats is ligated under slight ether narcosis in accordance with Shay et al. [Gastroenterology 5, 43 (1945)]. The substances to be tested, suspended in 0.5% carboxymethylcellulose, are administered intraduodenally. Control animals are treated only with the vehicle. Five hours after the ligation the animals are killed, the volume and acidity of their gastric juice are determined and the values obtained are compared with those of control animals. The ID50 is that dosage of a test substance which brings about a 50% decrease of the secretion in comparison to the control animals.
as §1

[2] = acute toxicity (single oral administration); settings: mouse, in vivo, read-out: Toxicity LD 50
Description: Representative compounds of formula I were investigated with respect to their mucosa-protective and gastric acid secretion-inhibiting properties as well as to their toxicity.
as §1

[3] = 30 minutes before ethanol, dosage reducing number of lesions by 50% vs control, male rats
[4] = intraduodenal, 5 hours after pylorus ligation, 50% decrease of secretion vs control, male rats
[5] = p.o., single oral administration to mice

Work on C=C(C)C(=O)CC/C(C)=C/CC/C(C)=C/C=NO (mixture of isomers) [T, (2E,6E)-3,7,11-trimethyl-10-oxo-2,6,11-dodecatrienal (E/Z)-oxime] yielded an ED50 [1, 3] of 7.8 mg/kg and an ED50 (gastric acid secretion; [4]) of 9.3 mg/kg.

For C#CC(CC/C(C)=C/CC/C(C)=C/CO)=NOC (mixture of isomers) [U, (6E,10E)-12-hydroxy-6,10-dimethyl-6,10-dodecadien-1-yn-3-one (E/Z)-O-methyl oxime], the ED50 [1, 3] was 7.9 mg/kg, the ED50 (gastric acid secretion; [4]) was 43.9 mg/kg and the LD50 ([2]; po) was 1000 to 2000 mg/kg.

In the case of CC=CC(O)CC/C(C)=C/CC/C(C)=C/CO (mixture of isomers) [V, (2E,6E,11(E/Z))-3,7-dimethyl-2,6,11-tridecatriene-1,10-diol], the ED50 [1, 3] is reported as 9.3 mg/kg and the ED50 (gastric acid secretion; [4]) is reported as 57.4 mg/kg.

With C#CC(=O)CC/C(C)=C/CC/C(C)=C/CO [A, (all-E)-12-hydroxy-6,10-dimethyl-6,10-dodecadien-1-yn-3-one] the ED50 [1, 3] was 0.55 mg/kg, the ED50 (gastric acid secretion; [4]) was 2 mg/kg and the LD50 ([2]; po) was 1000 to 2000 mg/kg.

Work on C=CC(=O)CC/C(C)=C/CC/C(C)=C/CO [B, (all-E)-12-hydroxy-6,10-dimethyl-1,6,10-dodecatrien-3-one] yielded an ED50 [1, 3] of 0.62 mg/kg and an ED50 (gastric acid secretion; [4]) of 68.2 mg/kg.

Compound CC#CC(=O)CC/C(C)=C/CC/C(C)=C/CO [C, (all-E)-13-hydroxy-7,11-dimethyl-7,11-tridecadien-2-yn-4-one] has an ED50 [1, 3] of 0.78 mg/kg, an ED50 (gastric acid secretion; [4]) of 80.3 mg/kg and an LD50 ([2]; po) of 1000 to 2000 mg/kg.

C/C=C/C(=O)CC/C(C)=C/CC/C(C)=C/CO [D, (all-E)-13-hydroxy-7,11-dimethyl-2,7,11-tridecatrien-4-one] showed an ED50 [1, 3] of 0.79 mg/kg, an ED50 (gastric acid secretion; [4]) of 66 mg/kg and an LD50 ([2]; po) of 1000 to 2000 mg/kg.

With C#CC(CC/C(C)=C/CC/C(C)=C/CO)(OCC)OCC [E, (all-E)-10,10-diethoxy-3,7-dimethyl-2,6-dodecadien-11-yn-1-ol] the ED50 [1, 3] was 0.93 mg/kg and the ED50 (gastric acid secretion; [4]) was 18.4 mg/kg.

With C=C(C)C(=O)CC/C(C)=C/CC/C(C)=C/CO [F, (all-E)-12-hydroxy-2,6,10-trimethyl-1,6,10-dodecatrien-3-one] the ED50 [1, 3] was 1.3 mg/kg, the ED50 (gastric acid secretion; [4]) was 27.7 mg/kg and the LD50 ([2]; po) was 625 to 1250 mg/kg.

Work on C=C(C)C(=O)CC/C(C)=C/CC/C(C)=C/C=O [G, (all-E)-10-oxo-3,7,11-trimethyl-2,6,11-dodecatrienal] yielded an ED50 [1, 3] of 1.8 mg/kg, an ED50 (gastric acid secretion; [4]) of 62.4 mg/kg and an LD50 ([2]; po) of 1000 to 2000 mg/kg.

Compound C=C(C)C(=O)CC/C(C)=C\CC/C(C)=C\CO [H, (6Z,10Z)-12-hydroxy-2,6,10-trimethyl-1,6,10-dodecatrien-3-one] has an ED50 [1, 3] of 1.8 mg/kg, an ED50 (gastric acid secretion; [4]) of 57.7 mg/kg and an LD50 [2, 5] of 2500 to 5000 mg/kg.

For C=C(C)C1(CC/C(C)=C/CC/C(C)=C/CO)OCCO1 [I, (all-E)-3,7-Dimethyl-9-[2-(1-methylvinyl)-1,3-dioxolan-2-yl]-2,6-nonadien-1-ol], the ED50 [1, 3] was 2.7 mg/kg, the ED50 (gastric acid secretion; [4]) was 13.2 mg/kg and the LD50 ([2]; po) was over 4000 mg/kg.

C=C(C)C(=O)CC/C(C)=C/CC/C(C)=C/C(N)=O [J, (E,E)-3,7,11-trimethyl-10-oxo-2,6,11-dodecatrienamide] gave an ED50 [1] of 3.4 mg/kg, an ED50 (gastric acid secretion; 5 h) of 63.9 mg/kg and an LD50 [2, 5] of 1000 to 2000 mg/kg.

Work on CC(C)=CC(=O)CC/C(C)=C/CC/C(C)=C/CO [K, (all-E)-13-hydroxy-2,7,11-trimethyl-2,7,11-tridecatrien-4-one] yielded an ED50 [1, 3] of 3.6 mg/kg and an ED50 (gastric acid secretion; [4]) of 60.8 mg/kg.

C=C(C)C(=O)CC/C(C)=C/CC/C(C)=C\CO [L, (6E,10Z)-12-hydroxy-2,6,10-trimethyl-1,6,10-dodecatrien-3-one] gave an ED50 [1, 3] of 4.4 mg/kg, an ED50 (gastric acid secretion; [4]) of 73.4 mg/kg and an LD50 [2, 5] of 625 to 1250 mg/kg.

Compound C=C(C)C(=O)CC/C(C)=C\CC/C(C)=C/CO [M, (6Z,10E)-12-hydroxy-2,6,10-trimethyl-1,6,10-dodecatrien-3-one] has an ED50 [1, 3] of 4.5 mg/kg, an ED50 (gastric acid secretion; [4]) of 62.7 mg/kg and an LD50 [2, 5] of 2500 to 5000 mg/kg.

With C=C(C)C(O)CC/C(C)=C/CC/C(C)=C/CO (stereo not drawn) [N, (all-E)-3,7,11-trimethyl-2,6,11-dodecatriene-1,10-diol] the ED50 [1, 3] was 3.2 mg/kg, the ED50 (gastric acid secretion; [4]) was 41.6 mg/kg and the LD50 ([2]; po) was over 2000 mg/kg.

With C=C(C)C(O)CC/C(C)=C/CC/C(C)=C/C(=O)O (stereo not drawn) [O, (all-E)-10-hydroxy-3,7,11-trimethyl-2,6,11-dodecatrienoic acid] the ED50 [1, 3] was 26.8 mg/kg, the ED50 (gastric acid secretion; [4]) was 48.8 mg/kg and the LD50 ([2]; po) was 1250 to 2500 mg/kg.

C=C(C)C(=O)CC/C(C)=C/CC/C(C)=C/C(=O)O [P, (all-E)-10-Oxo-3,7,11-trimethyl-2,6,11-dodecatrienoic acid] gave an ED50 [1, 3] of 5 mg/kg, an ED50 (gastric acid secretion; [4]) of 79.6 mg/kg and an LD50 ([2]; po) of 1250 to 2500 mg/kg.

In the case of C=C(C)C(CC/C(C)=C/CC/C(C)=C/CO)(OC)OC [Q, (all-E)-10,10-dimethoxy-3,7,11-trimethyl-2,6,11-dodecatrien-1-ol], the ED50 [1, 3] is reported as 5.3 mg/kg, the ED50 (gastric acid secretion; [4]) is reported as 4.7 mg/kg and the LD50 ([2]; po) is reported as over 5000 mg/kg.

Compound C=C(C)C(O)CC/C(C)=C/CC/C(C)=C/C=O (stereo not drawn) [R, (all-E)-10-hydroxy-3,7,11-trimethyl-2,6,11-dodecatrienal] has an ED50 [1, 3] of 6.4 mg/kg, an ED50 (gastric acid secretion; [4]) of 28.6 mg/kg and an LD50 ([2]; po) of over 5000 mg/kg.

In the case of C/C(=C\CO)CC/C=C(\C)CCC(=O)C#C[Si](C)(C)C [S, (all-E)-12-hydroxy-6,10-dimethyl-1-(trimethylsilyl)-6,10-dodecadien-1-yn-3-one], the ED50 [1] is reported as 6.5 mg/kg and the ED50 (gastric acid secretion; 5 h) is reported as 46.9 mg/kg.
